Patent publication US20250064941A1, “SIGLEC LIGANDS, CONJUGATES, AND METHODS OF USE THEREOF” (Osprey Biopharmaceuticals, Inc., priority 2023, published 2025)

Assays:
[1] = target: cynomolgus Siglec-2/CD22 (Macaca fascicularis, UniProt A0A2K5WCZ6); assay: biochemical; assay type: binding; settings: SPR, steady-state analysis; read-out: Affinity cyno CD22
Procedure, shortened: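 Compound binding measured by steady-state SPR analysis, 120 s dissociation, in HEPES-NaCl-Tween buffer pH 7.5 containing 1% DMSO, DMSO solvent-corrected. Surface: cyno CD22, sialic acids first stripped by SialoExo for 4 h at 37° C., then amine-coupled onto CM5.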

[2] = target: T1, mouse Siglec-2-Fc-Avi (CD22) (Mus musculus, UniProt P35329); assay: SPR binding affinity to mouse CD22; settings: steady-state analysis
T1 construct: made in house
T1 sequence (P35329 22-708 limits assumed): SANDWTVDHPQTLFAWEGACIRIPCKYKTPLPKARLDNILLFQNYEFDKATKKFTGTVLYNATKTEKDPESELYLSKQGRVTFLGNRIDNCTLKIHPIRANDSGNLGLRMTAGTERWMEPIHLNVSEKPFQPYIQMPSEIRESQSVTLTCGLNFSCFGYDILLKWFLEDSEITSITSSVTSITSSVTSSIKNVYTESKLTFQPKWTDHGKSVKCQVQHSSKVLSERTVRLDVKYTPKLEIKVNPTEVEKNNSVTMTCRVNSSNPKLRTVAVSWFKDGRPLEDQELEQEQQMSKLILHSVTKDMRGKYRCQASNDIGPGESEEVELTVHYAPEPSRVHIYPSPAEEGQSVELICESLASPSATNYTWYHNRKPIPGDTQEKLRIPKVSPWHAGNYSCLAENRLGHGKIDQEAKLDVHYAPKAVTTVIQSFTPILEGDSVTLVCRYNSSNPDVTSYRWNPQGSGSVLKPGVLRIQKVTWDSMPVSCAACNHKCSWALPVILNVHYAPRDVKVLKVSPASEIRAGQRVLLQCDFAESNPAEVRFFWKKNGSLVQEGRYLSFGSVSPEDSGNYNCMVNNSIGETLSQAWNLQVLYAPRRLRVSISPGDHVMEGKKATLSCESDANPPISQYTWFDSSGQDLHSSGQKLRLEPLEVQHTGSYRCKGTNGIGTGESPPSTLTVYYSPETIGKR
Procedure, shortened: (§1)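 Using a Biacore 8K, compounds were tested against biotinylated CD22 captured after sialidase treatment. The running buffer held 1% DMSO, corrected with a 0.5–2% DMSO series. Affinity was derived by steady-state analysis.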

[3] = target: T2, human Siglec-2/CD22 protein (Homo sapiens, UniProt P20273); assay: SPR binding affinity to human CD22; settings: steady-state analysis
T2 construct: purchased Acro Biosystems SI2-H82E3
T2 sequence (P20273 20-847): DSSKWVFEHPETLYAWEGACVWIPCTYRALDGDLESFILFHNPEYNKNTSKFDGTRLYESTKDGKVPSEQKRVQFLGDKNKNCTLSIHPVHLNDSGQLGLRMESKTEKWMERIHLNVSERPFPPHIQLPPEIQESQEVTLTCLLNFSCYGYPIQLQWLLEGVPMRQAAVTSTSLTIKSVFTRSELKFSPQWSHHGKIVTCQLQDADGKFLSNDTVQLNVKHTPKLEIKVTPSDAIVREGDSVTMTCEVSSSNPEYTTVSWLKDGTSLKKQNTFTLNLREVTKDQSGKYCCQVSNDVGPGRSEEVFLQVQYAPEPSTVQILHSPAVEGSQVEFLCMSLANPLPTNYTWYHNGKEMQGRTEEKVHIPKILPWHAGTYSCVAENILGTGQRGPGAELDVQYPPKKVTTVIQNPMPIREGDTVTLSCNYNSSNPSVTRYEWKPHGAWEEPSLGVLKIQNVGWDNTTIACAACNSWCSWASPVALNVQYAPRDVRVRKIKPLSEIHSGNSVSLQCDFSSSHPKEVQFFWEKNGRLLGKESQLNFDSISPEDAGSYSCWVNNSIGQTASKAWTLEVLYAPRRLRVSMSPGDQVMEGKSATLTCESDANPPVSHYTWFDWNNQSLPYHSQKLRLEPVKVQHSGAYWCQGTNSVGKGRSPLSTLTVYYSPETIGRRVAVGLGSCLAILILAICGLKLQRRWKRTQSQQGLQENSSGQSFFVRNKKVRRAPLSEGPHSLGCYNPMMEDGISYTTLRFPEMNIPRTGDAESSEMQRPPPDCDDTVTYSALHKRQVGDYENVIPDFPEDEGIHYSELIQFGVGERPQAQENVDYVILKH
Procedure, shortened: as §1

Chain of cynomolgus Siglec-2/CD22 (A0A2K5WCZ6 entry or part of it): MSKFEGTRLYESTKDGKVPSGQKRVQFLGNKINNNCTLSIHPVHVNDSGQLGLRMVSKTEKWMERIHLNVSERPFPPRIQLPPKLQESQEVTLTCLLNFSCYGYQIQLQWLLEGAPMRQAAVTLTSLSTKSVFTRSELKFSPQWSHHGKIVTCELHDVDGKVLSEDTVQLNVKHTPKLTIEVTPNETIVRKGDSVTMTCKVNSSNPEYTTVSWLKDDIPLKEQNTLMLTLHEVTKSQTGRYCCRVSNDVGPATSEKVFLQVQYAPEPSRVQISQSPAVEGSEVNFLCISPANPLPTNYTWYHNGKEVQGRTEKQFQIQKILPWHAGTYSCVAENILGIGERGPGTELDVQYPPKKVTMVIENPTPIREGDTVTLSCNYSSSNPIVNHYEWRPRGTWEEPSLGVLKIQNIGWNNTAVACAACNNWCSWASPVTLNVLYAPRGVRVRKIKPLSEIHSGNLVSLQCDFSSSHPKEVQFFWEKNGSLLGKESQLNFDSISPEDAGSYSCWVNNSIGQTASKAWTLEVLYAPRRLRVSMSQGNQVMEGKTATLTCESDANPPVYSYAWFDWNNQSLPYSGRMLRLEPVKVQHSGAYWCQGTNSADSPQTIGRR

Row | Kd [1] | Kd [2] | Kd [3] | Structure (SMILES)
1 | 1 to 10 µM | > 10 µM | 1 to 10 µM | CC(=O)NCCOCCOCCOCCOCCC(=O)NCCCCCCO[C@]1(C(=O)O)C[C@H](O)[C@@H](NC(C)=O)[C@H]([C@H](O)[C@H](O)CNC(=O)c2cccc(Cl)c2)O1 [Compound 271, (2R,4S,5R,6R)-5-acetamido-6-((1R,2R)-3-(3-chlorobenzamido)-1,2-dihydroxypropyl)-2-((2,18-dioxo-6,9,12,15-tetraoxa-3,19-diazapentacosan-25-yl)oxy)-4-hydroxytetrahydro-2H-pyran-2-carboxylic acid]
2 | < 1 µM | < 1 µM | < 1 µM | C#CCNc1c(NCCCCCCO[C@]2(C(=O)O)C[C@H](O)[C@@H](NC(=O)CO)[C@H]([C@H](O)[C@H](O)CNC(=O)Cc3ccc(C(F)F)cc3)O2)c(=O)c1=O [Compound 220, (2R,4S,5R,6R)-6-((1R,2R)-3-(2-(4-(difluoromethyl)phenyl)acetamido)-1,2-dihydroxypropyl)-2-((6-((3,4-dioxo-2-(prop-2-yn-1-ylamino)cyclobut-1-en-1-yl)amino)hexyl)oxy)-4-hydroxy-5-(2-hydroxyacetamido)tetrahydro-2H-pyran-2-carboxylic acid]
3 | 1 to 10 µM | 1 to 10 µM | < 1 µM | C#CCOc1ccc(CO[C@]2(C(=O)O)C[C@H](O)[C@@H](NC(=O)CO)[C@H]([C@H](O)[C@H](O)CNC(=O)Cc3cccc(F)c3)O2)cc1 [Compound 167, (2R,4S,5R,6R)-6-((1R,2R)-3-(2-(3-fluorophenyl)acetamido)-1,2-dihydroxypropyl)-4-hydroxy-5-(2-hydroxyacetamido)-2-((4-(prop-2-yn-1-yloxy)benzyl)oxy)tetrahydro-2H-pyran-2-carboxylic acid]
4 | < 1 µM | < 1 µM | < 1 µM | C#CCNc1c(NCCCCCCO[C@]2(C(=O)O)C[C@H](O)[C@@H](NC(=O)CO)[C@H]([C@H](O)[C@H](O)CNC(=O)Cc3ccc(Cl)cc3)O2)c(=O)c1=O [Compound 112, (2R,4S,5R,6R)-6-((1R,2R)-3-(2-(4-chlorophenyl)acetamido)-1,2-dihydroxypropyl)-2-((6-((3,4-dioxo-2-(prop-2-yn-1-ylamino)cyclobut-1-en-1-yl)amino)hexyl)oxy)-4-hydroxy-5-(2-hydroxyacetamido)tetrahydro-2H-pyran-2-carboxylic acid]
5 | < 1 µM | < 1 µM | < 1 µM | C#CCCOc1ccc(CO[C@]2(C(=O)O)C[C@H](O)[C@@H](NC(=O)NC)[C@H]([C@H](O)[C@H](O)CNC(=O)Cc3ccc(-c4ccc(O)cc4)cc3)O2)cc1 [Compound 61, (2R,4S,5R,6R)-2-((4-(but-3-yn-1-yloxy)benzyl)oxy)-6-((1R,2R)-1,2-dihydroxy-3-(2-(4′-hydroxy-[1,1′-biphenyl]-4-yl)acetamido)propyl)-4-hydroxy-5-(3-methylureido)tetrahydro-2H-pyran-2-carboxylic acid]
6 | 1 to 10 µM | 1 to 10 µM | 1 to 10 µM | CC(=O)NCCOCCOCCOCCOCCNC(=O)CCOCCO[C@]1(C(=O)O)C[C@H](O)[C@@H](NC(=O)CO)[C@H]([C@H](O)[C@H](O)CNC(=O)Cc2ccc(Cl)cc2)O1 [Compound 239, (2R,4S,5R,6R)-6-((1R,2R)-3-(2-(4-chlorophenyl)acetamido)-1,2-dihydroxypropyl)-2-((2,19-dioxo-6,9,12,15,22-pentaoxa-3,18-diazatetracosan-24-yl)oxy)-4-hydroxy-5-(2-hydroxyacetamido) tetrahydro-2H-pyran-2-carboxylic acid]
7 | < 1 µM | > 10 µM | 1 to 10 µM | C#CCOCCOCCO[C@]1(C(=O)O)C[C@H](O)[C@@H](NC(=O)CO)[C@H]([C@H](O)[C@H](O)CNC(=O)Cc2ccc(F)c(C(F)(F)F)c2)O1 [Compound 132, (2R,4S,5R,6R)-6-((1R,2R)-3-(2-(4-fluoro-3-(trifluoromethyl)phenyl)acetamido)-1,2-dihydroxypropyl)-4-hydroxy-5-(2-hydroxyacetamido)-2-(2-(2-(prop-2-yn-1-yloxy)ethoxy)ethoxy)tetrahydro-2H-pyran-2-carboxylic acid]
